Results reported in the supplement of paper PMC10307832.

What was measured:
Test in all cases: relative viability (nuclei count vs DMSO), 5 days (fraction); higher = more cells survive
Masitinib + Alpelisib = compound: Cc1ccc(NC(=O)c2ccc(CN3CCN(C)CC3)cc2)cc1Nc1nc(-c2cccnc2)cs1 [Masitinib] + Cc1nc(NC(=O)N2CCC[C@H]2C(N)=O)sc1-c1ccnc(C(C)(C)C(F)(F)F)c1 [Alpelisib] (partner 2 µM)
Summary of the method: (§1)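 Nuclei were stained with Hoechst during a one-step fixation (final 0.05% Triton X-100, 1% formaldehyde, 1 ug/ml Hoechst) carried out 5 days after dosing, then counted on 4× images. The cells, lung cancer lines in 1536-well plates, had been dosed by pin tool the day after seeding with one drug alone or a fixed anchor-drug dose plus five library-drug doses (not always all listed) in √10 steps. Relative viability is the nuclei count in treated wells divided by that in vehicle wells, and each value is the median of duplicate plates.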

[1] = compound: CC1=CC(=CC=C1)NC2=NC(=CS2)C3=CC=NC=C3 + O=C(CCCCCCC(=O)Nc1ccccc1)NO [Vorinostat] (partner 1 µM)
Summary of the method: as §1

[2] = compound: CC1=CC(=CC=C1)NC2=NC(=CS2)C3=CC=NC=C3 + Nc1ncn([C@H]2C[C@H](O)[C@@H](CO)O2)c(=O)n1 [Decitabine] (partner 2 µM)
Summary of the method: as §1

Masitinib + Lapatinib = compound: Cc1ccc(NC(=O)c2ccc(CN3CCN(C)CC3)cc2)cc1Nc1nc(-c2cccnc2)cs1 [Masitinib] + CS(=O)(=O)CCNCc1ccc(-c2ccc3ncnc(Nc4ccc(OCc5cccc(F)c5)c(Cl)c4)c3c2)o1 [Lapatinib] (partner 2 µM)
Summary of the method: as §1

Cell Line | relative viability (Masitinib + Alpelisib; first compound 0.01 µM) | relative viability (Masitinib + Alpelisib; first compound 0.03162 µM) | relative viability (Masitinib + Alpelisib; first compound 0.1 µM) | relative viability (Masitinib + Alpelisib; first compound 0.3162 µM) | relative viability (Masitinib + Alpelisib; first compound 1 µM) | relative viability ([1]; first compound 0.08 µM) | relative viability ([1]; first compound 0.253 µM) | relative viability ([1]; first compound 0.8 µM) | relative viability ([1]; first compound 2.53 µM) | relative viability ([1]; first compound 8 µM) | relative viability ([2]; first compound 0.08 µM) | relative viability ([2]; first compound 0.253 µM) | relative viability ([2]; first compound 0.8 µM) | relative viability ([2]; first compound 2.53 µM) | relative viability ([2]; first compound 8 µM) | relative viability (Masitinib + Lapatinib; first compound 0.01 µM) | relative viability (Masitinib + Lapatinib; first compound 0.03162 µM) | relative viability (Masitinib + Lapatinib; first compound 0.1 µM) | relative viability (Masitinib + Lapatinib; first compound 0.3162 µM) | relative viability (Masitinib + Lapatinib; first compound 1 µM)
LXF-289 | 0.886 | 1.01 | 1.03 | 1 | 1.02 | 0.746 | 0.808 | 0.801 | 0.679 | 0.718 | 0.353 | 0.383 | 0.391 | 0.375 | 0.363 | 0.757 | 0.879 | 0.938 | 0.929 | 0.894
NCI-H23 | 0.639 | 0.49 | 0.659 | 0.579 | 0.669 | 0.519 | 0.613 | 0.596 | 0.526 | 0.612 | 0.327 | 0.274 | 0.32 | 0.299 | 0.32 | 0.889 | 0.829 | 1.16 | 1.19 | 1.09
NCI-H322M | 0.782 | 0.778 | 0.932 | 0.763 | 0.793 | 0.788 | 0.759 | 0.916 | 0.814 | 0.95 | 0.736 | 0.703 | 0.67 | 0.706 | 0.691 | 0.55 | 0.623 | 0.573 | 0.603 | 0.53
NCI-H358 | 0.734 | 0.802 | 0.813 | 0.788 | 0.852 | 0.633 | 0.653 | 0.518 | 0.662 | 0.624 | 0.233 | 0.22 | 0.208 | 0.249 | 0.225 | 0.465 | 0.479 | 0.492 | 0.494 | 0.421
NCI-H460 | 0.479 | 0.522 | 0.521 | 0.429 | 0.471 | 0.54 | 0.536 | 0.562 | 0.462 | 0.395 | 0.445 | 0.432 | 0.464 | 0.405 | 0.402 | 0.996 | 1.13 | 0.921 | 1.05 | 1.26
NCI-H520 | 0.914 | – | 0.966 | 0.826 | 1.02 | 0.624 | 0.694 | 0.779 | 0.851 | 0.838 | 0.55 | 0.468 | 0.541 | 0.586 | 0.61 | 0.949 | – | 0.944 | 0.82 | 0.917
NCI-H596 | 0.341 | 0.462 | 0.625 | 0.397 | 0.435 | 0.552 | 0.489 | 0.453 | 0.529 | 0.422 | 0.923 | 1.02 | 0.836 | 0.899 | 0.91 | 1.13 | 1.2 | 1.07 | 1.06 | 0.911
NCI-H647 | 1.08 | 1.26 | 1.19 | 1.28 | 1.1 | 0.576 | 0.531 | 0.591 | 0.498 | 0.454 | 0.3 | 0.437 | 0.443 | 0.365 | 0.436 | 0.869 | 0.919 | 1.07 | 1.04 | 0.994
NCI-H650 | 1.14 | 1.03 | 1.17 | 1.31 | 1.08 | 0.414 | 0.429 | 0.395 | 0.624 | 0.599 | 0.331 | 0.3 | 0.336 | 0.386 | 0.334 | 0.927 | 0.859 | 1.09 | 1.07 | 1.1
NCI-H661 | 0.748 | 0.577 | 0.623 | 0.384 | 0.47 | 0.764 | 0.753 | 0.747 | 0.718 | 0.666 | 0.514 | 0.585 | 0.556 | 0.505 | 0.533 | 0.52 | 0.229 | 0.566 | 0.492 | 0.41
NCI-H727 | 0.652 | 0.657 | 0.517 | 0.603 | 0.74 | 0.967 | – | 1.1 | – | 1.24 | 0.88 | – | 0.864 | – | 0.836 | 0.923 | 0.95 | 0.857 | 0.914 | 0.68
NCI-H838 | 0.912 | 0.865 | 0.992 | 0.769 | 0.957 | 0.64 | 0.599 | 0.628 | 0.582 | 0.524 | 0.458 | 0.473 | 0.501 | 0.448 | 0.457 | 0.808 | 0.846 | 0.774 | 0.794 | 1.02
NCI-H1355 | 0.857 | 0.707 | 0.938 | 0.668 | 0.731 | 0.521 | 0.458 | 0.429 | 0.403 | 0.469 | 0.347 | 0.311 | 0.351 | 0.318 | 0.356 | 0.691 | 0.94 | 0.807 | 0.781 | 0.951
NCI-H1395 | 1.12 | 1.01 | 1.1 | 1.16 | 1.09 | 0.618 | – | 0.804 | 0.478 | 0.537 | 0.666 | – | 0.685 | 0.677 | 0.761 | 1.37 | 1.16 | 1.39 | 0.982 | 0.81
NCI-H1437 | 0.918 | 0.979 | 1.01 | 1.08 | 0.962 | 0.722 | 0.732 | 0.611 | 0.718 | 0.362 | 0.593 | 0.521 | 0.742 | 0.384 | 0.48 | 0.661 | 0.755 | 0.798 | 0.832 | 0.728
NCI-H1651 | 0.841 | 1.01 | 0.99 | 0.947 | 1 | 0.562 | 0.547 | 0.569 | 0.464 | 0.596 | 0.558 | 0.55 | 0.66 | 0.475 | 0.628 | 0.831 | 0.849 | 0.829 | 0.908 | 0.854
